From patent US20060173069A1, “Therapeutic agent for hyperpotassemia and bone disease” (RIKEN, priority 2003, published 2006)

Key:
[1] = test system: undifferentiated RAW264 cells; assay: Cell-death inducing activity on undifferentiated RAW264 cells, MTT method; assay type: cell-based, mouse; settings: for CC50: Mus musculus, RAW264.7, 24 hours incubation, MTT, read-out: ED50 level of cell-death inducing activity to undifferentiated RAW264 cells, MTT; for growth inhibitory action on the osteoclast precursor cells RAW264: even at a comparatively high concentration
Protocol: The cell-death inducing activities to the undifferentiated RAW264 cells were investigated by the MTT method (J. Immunol. Methods, Vol. 65, pp 55-63 (1983). The RAW 264 cells were plated on a 96-well plate at a density of 40,000 cells/100 μl and then incubated for 24 hours. After the 24-hour incubation, 50 μl of a culture medium containing a three-fold concentration of the drug was added and then incubated for 24 hours to investigate the cell-death inducing activity. Two hours before the measurement of the cell-death inducing activity, 15 μl of 0.5% MTT-PBS (phosphate buffer saline) was added and incubated. After that, the residue from which the culture solution was removed was dissolved in 100 μl of DMSO (dimethyl sulfoxide) and the absorbance at 570 nm (a reference wave length of 630 nm) was measured, followed by calculating the ED50 level of the cell-death inducing activity.

[2] = test system: bone resorption due to parathyroid hormone (PTH); assay: Serum calcium in TPTX rats with hypercalcemia by continuous PTH infusion; assay type: in vivo, SD rats; settings: for increase in the level of serum calcium due to PTH: 80 mg/kg, TPTX SD rats, administered 12 hours after start of PTH, followed 24 hours; for duration of inhibitory action on bone resorption: comparison of calcitonin with reveromycin A derivatives
Protocol: The bone resorption inhibitory effects of the reveromycin A derivatives were examined by measuring the level of serum calcium released in the blood by the action of bone resorption. SD rats were subjected to an operation of extracting the thyroid glands and the parathyroid glands (TPTX). Next day, a decrease in serum calcium was confirmed and then the continuous infusion of the parathyroid hormone (PTH) was carried out, thereby creating rats each having hypercalcemia by accelerating the bone resorption.
At 12 hours from the initiation of PTH injection, the reveromycin A derivatives ([…]) or a sodium salt thereof ([…]) were administered and the level of serum calcium was then measured in time-course for 24 hours.

mature osteoclasts = assay: Cell-death (apoptosis) inducing activity on mature osteoclasts, number of TRAP-stained multinuclear cells; assay type: cell-based, mouse; settings: for EC50: Mus musculus, Osteoclast, RAW264-derived mature osteoclasts, 24 hours incubation, TRAP staining, read-out: ED50 level of cell-death inducing activity to mature osteoclasts, Number of cells; for selective apoptosis inducing effect on the mature osteoclasts: in words
Protocol: Using 29 different reveromycin A derivatives synthesized as described above, the cell-death inducing activities on the mature osteoclasts and undifferentiated macrophage-like cells derived from a mouse (RAW264 cells) were examined, respectively. The RAW264 cells, a mouse-macrophage cell line, were suspended in a 10% FBS-αMEM (manufactured by Gibco BRL Co., Ltd.) and then 12,000 cells/100 μl were inoculated in a 96-well plate. After 1-hour incubation, 100 μl of a culture medium containing RANKL ([…]) and PD98059 (40 μM) were added (final concentration: RANKL […] and PD98059 20 μM) and then incubated for 4 days to allow the differentiation of the cells to mature osteoclasts (J. Biol. Chem. Vol. 277, pp. 47366-47372 (2002)). Furthermore, on the second day of the culture, the half of the culture medium was replaced with new one. From each well of the plate where the cells were differentiated to the mature osteoclasts, 100 μl/well of the culture medium was removed. […] The apoptosis inducing activity was confirmed by the observation of agglutination of nuclei stained with 10 μM Hoechst 33258 for 10-minututes.

[3] = test system: anterior limb long bone, bone resorption induced by PTH, IL-1 or vitamin D3; assay: Inhibition of 45Ca liberation (bone resorption activity) from cultured fetal long bone; assay type: cell-based, rat; settings: 72 hours culture; for inhibition of bone resorption induced by the PTH: 10^−8M, 10^−7M and 10^−6M, PTH 10^−8M; for inhibition of bone resorption due to vitamin D3 or IL-1: IL-1 0.3 ng/ml, vitamin D3 10^−8M
Protocol: The effects of the reveromycin A derivatives on the facilitation of the bone resorption due to the parathyroid hormone (PTH) were measured.
A19-day pregnant rat was subjected to the hypodermic injection of [^45Ca]CaCl2 to label a fetal bone. After 24 hours, the anterior limb long bone was extracted. For an anterior limb long bone, a Dulbecco-modified Eagle medium (DMEM) containing 15% heat-inactivated horse serum and 100 U/ml penicillin was used as a culture medium and then incubated for 72 hours together with a bone resorption factor (PTH 10^−8M, IL-1 0.3 ng/ml, vitamin D3 10^−8M) and the reveromycin A derivatives. After incubation, ^45Ca radioactivities in a solution into which calcium of the bone was eluted by 0.1 N HCl and in the culture solution were measured using a liquid scintillation counter. The ratio of the amount of calcium released into the culture solution to the total amount of calcium (bone resorption activity (%)) was used as an indicator and the effects of the reveromycin A derivatives on the facilitation of the bone resorption due to the PTH was investigated. • Bone resorption activity (%)=100×Amount of ^45Ca released into culture solution/(Amount of ^45Ca released into culture solution+Amount of ^45Ca left in bone)

Structure (SMILES) | CC50 [1] | growth inhibitory action on the osteoclast precursor cells RAW264 [1] | increase in the level of serum calcium due to PTH [2] | duration of inhibitory action on bone resorption [2] | EC50 (mature osteoclasts) | selective apoptosis inducing effect on the mature osteoclasts (mature osteoclasts) | inhibition of bone resorption induced by the PTH [3] | inhibition of bone resorption due to vitamin D3 or IL-1 [3]
CCCC[C@@]1(OC(=O)CCC(=O)O)CC[C@]2(CC[C@H](C)[C@@H](C/C=C(C)/C=C/[C@H](O[Si](C)(C)C(C)(C)C)[C@@H](C)/C=C/C(=O)O)O2)O[C@H]1/C=C/C(C)=C/C(=O)O [Compound 2, C5-silylether] | 89 µM | do not show any growth inhibitory action | significant suppression | prolonged inhibitory action on bone resorption | 6.6 µM | showed a selective apoptosis inducing effect | inhibited the bone resorption induced by the PTH at 10^−8M, 10^−7M, and 10^−6M, in a concentration-dependent manner | could be also inhibited
CCCC[C@@]1(OC(=O)CCC(=O)O)CC[C@]2(CC[C@H](C)[C@@H](C/C=C(C)/C=C/[C@H](OC(C)=O)[C@@H](C)/C=C/C(=O)O)O2)O[C@H]1/C=C/C(C)=C/C(=O)O [Compound 27, C5-acetate] | 49 µM | do not show any growth inhibitory action | significant suppression | prolonged inhibitory action on bone resorption | 1.3 µM | showed a selective apoptosis inducing effect | inhibited the bone resorption induced by the PTH at 10^−8M, 10^−7M, and 10^−6M, in a concentration-dependent manner | could be also inhibited
